Cc1c(C(=O)O)cccc1[N+](=O)[O-]
solubility (mole fraction)
Conditions | 278.15 K | 283.15 K | 288.15 K | 293.15 K | 298.15 K | 303.15 K | 308.15 K | 313.15 K
in 1,4-dioxane | – | – | 0.0933 | 0.102 | 0.112 | 0.121 | 0.132 | 0.143
in DMF | 0.147 | 0.166 | 0.191 | 0.217 | 0.244 | 0.275 | 0.31 | 0.35
in acetonitrile | 0.00434 | 0.00523 | 0.00624 | 0.00737 | 0.00879 | 0.0104 | 0.0122 | 0.0143
in ethanol | 0.0152 | 0.0181 | 0.0216 | 0.0254 | 0.0297 | 0.0349 | 0.041 | 0.0478
in ethyl acetate | 0.0228 | 0.0258 | 0.0297 | 0.0336 | 0.0378 | 0.0426 | 0.0478 | 0.0538
in isobutanol | 0.00938 | 0.0114 | 0.014 | 0.0166 | 0.0201 | 0.024 | 0.028 | 0.033
in isopropanol | 0.0133 | 0.0161 | 0.019 | 0.0224 | 0.0266 | 0.0314 | 0.0362 | 0.0426
in isopropyl acetate | 0.0146 | 0.017 | 0.0196 | 0.023 | 0.027 | 0.031 | 0.0361 | 0.0413
in methanol | 0.0136 | 0.016 | 0.0193 | 0.0225 | 0.0264 | 0.0312 | 0.0367 | 0.0424
in methyl acetate | 0.0265 | 0.0302 | 0.0338 | 0.038 | 0.0428 | 0.0483 | 0.0539 | 0.06
in n-butanol | 0.0178 | 0.0213 | 0.0255 | 0.0308 | 0.0366 | 0.0434 | 0.0515 | 0.0608
in n-butyl acetate | 0.0165 | 0.0191 | 0.0227 | 0.0261 | 0.0296 | 0.034 | 0.039 | 0.0446
in n-propanol | 0.016 | 0.019 | 0.0227 | 0.027 | 0.032 | 0.0379 | 0.0441 | 0.0519
in n-propyl acetate | 0.0191 | 0.0221 | 0.0251 | 0.0293 | 0.0335 | 0.038 | 0.0432 | 0.049

Reference: BigSolDB 2.1
